Measurements: PubChem BioAssay AID1259411 (Chemical Carcinogenesis Research Information System (CCRIS), 2018)
Active and inactive are the calls of the source. The rule behind the calls is not given here.

System: rodent carcinogenicity bioassays, tumor incidence
Experiment: CCRIS carcinogenicity studies
Details: Dose: 0, Dose: 0
Summary of the method: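 NCI-built, expert-reviewed records of carcinogenicity and related test outcomes (mutagenicity, tumor promotion/inhibition) compiled from published and report sources, historical span 1985-2011, not updated.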

With `CCCCCCN(N=O)C(N)=O` the carcinogen call (Species: RAT, Strain/Sex: F344/FEMALE, Route: GAVAGE, 17.5 MG/ML (TOTAL DOSE 0; 2 MMOL) IN 2 ML ETHYL ACETATE AND CORN OIL (1:2) 2/WK FOR 50 WK (STUDY DURATION: LIFETIME), 17.5 MG/ML (TOTAL DOSE 0; 2 MMOL) IN 2 ML ETHYL ACETATE AND CORN OIL (1:2) 2/WK FOR 50 WK (STUDY DURATION: LIFETIME), Tumor Site: Type of Lesion: FORESTOMACH: SQUAMOUS CELL CARCINOMA, LUNG: TUMOR, MAMMARY GLAND: TUMOR, UTERUS: TUMOR, Tumor Site: Type of Lesion: FORESTOMACH: SQUAMOUS CELL CARCINOMA, LUNG: TUMOR, MAMMARY GLAND: TUMOR, UTERUS: TUMOR) was “active; positive”, the carcinogen call (Species: RAT, Strain/Sex: F344/FEMALE, Route: GAVAGE, 17.5 MG/ML IN 0.2 ML ETHYL ACETATE AND CORN OIL 2/WK FOR 50 WK (STUDY DURATION: LIFESPAN), Tumor Site: Type of Lesion: FORESTOMACH: TUMOR, LUNG: TUMOR, MAMMARY GLAND: TUMOR, UTERUS: TUMOR, Tumor Site: Type of Lesion: FORESTOMACH: TUMOR, LUNG: TUMOR, MAMMARY GLAND: TUMOR, UTERUS: TUMOR) was “active; positive” and the carcinogen call (Species: RAT, Strain/Sex: F344/MALE, Route: GAVAGE, 17.5 MG/ML (TOTAL DOSE 0; 2 MMOL) IN 2 ML ETHYL ACETATE AND CORN OIL (1:2) 2/WK FOR 50 WK (STUDY DURATION: LIFETIME), 17.5 MG/ML (TOTAL DOSE 0; 2 MMOL) IN 2 ML ETHYL ACETATE AND CORN OIL (1:2) 2/WK FOR 50 WK (STUDY DURATION: LIFETIME), Tumor Site: Type of Lesion: FORESTOMACH: SQUAMOUS CELL CARCINOMA, LUNG: TUMOR, BODY CAVITY: MESOTHELIOMA, Tumor Site: Type of Lesion: FORESTOMACH: SQUAMOUS CELL CARCINOMA, LUNG: TUMOR, BODY CAVITY: MESOTHELIOMA) was “active; positive”. The carcinogen call (Species: RAT, Strain/Sex: F344/MALE, Route: GAVAGE, 17.5 MG/ML IN 0.2 ML ETHYL ACETATE AND CORN OIL 2/WK FOR 50 WK (STUDY DURATION: LIFESPAN), Tumor Site: Type of Lesion: FORESTOMACH: TUMOR, LUNG: TUMOR, PERITONEUM: MESOTHELIOMA, SKIN: TUMOR, Tumor Site: Type of Lesion: FORESTOMACH: TUMOR, LUNG: TUMOR, PERITONEUM: MESOTHELIOMA, SKIN: TUMOR) was “active; positive”.

For `OC1C=Cc2c(cc3ccc4cccc5c6ccccc6c2c3c45)C1O` (stereo not drawn), the carcinogen call (Species: MOUSE, Strain/Sex: SWISS/FEMALE, Route: DERMAL, 1, 4 NMOL IN 100 µL ACETONE 2/WK FOR 40 WK (STUDY DURATION: 48 WK), 1, 4 NMOL IN 100 µL ACETONE 2/WK FOR 40 WK (STUDY DURATION: 48 WK), Tumor Site: Type of Lesion: SKIN: TUMORS) was “active; positive”.

For `O[C@H]1CCc2c(ccc3cc4ccc5ccccc5c4nc23)[C@@H]1O`, the carcinogen call (Species: MOUSE, Strain/Sex: CD-1/FEMALE, Route: INTRAPERITONEAL, 175 NMOL (TOTAL DOSE) ADMINISTERED AS 1/7 OF DOSE WITHIN 24 HR AFTER BIRTH, 2/7 OF DOSE AT 8 D OLD, 4/7 OF DOSE AT 15) was “inactive; negative” and the carcinogen call (Species: MOUSE, Strain/Sex: CD-1/MALE, Route: INTRAPERITONEAL, 175 NMOL (TOTAL DOSE) ADMINISTERED AS 1/7 OF DOSE WITHIN 24 HR AFTER BIRTH, 2/7 OF DOSE AT 8 D OLD, 4/7 OF DOSE AT 15) was “inactive; negative”.

For `O=S(=O)(O)c1cc(S(=O)(=O)O)c2c(N=Nc3ccccc3)c(O)ccc2c1`, the carcinogen call (Species: MOUSE, Strain/Sex: B6C3F1/FEMALE, Route: ORAL, 3000, 6000 PPM IN DIET FOR 103 WK (STUDY DURATION: 104 WK), 3000, 6000 PPM IN DIET FOR 103 WK (STUDY DURATION: 104 WK)) was “inactive; negative”, the carcinogen call (Species: MOUSE, Strain/Sex: B6C3F1/MALE, Route: ORAL, 3000, 6000 PPM IN DIET FOR 103 WK (STUDY DURATION: 104 WK), 3000, 6000 PPM IN DIET FOR 103 WK (STUDY DURATION: 104 WK)) was “inactive; negative” and the carcinogen call (Species: RAT, Strain/Sex: F344/FEMALE, Route: ORAL, 1000, 3000 PPM IN DIET FOR 103 WK (STUDY DURATION: 104 WK), 1000, 3000 PPM IN DIET FOR 103 WK (STUDY DURATION: 104 WK)) was “inactive; negative”. The carcinogen call (Species: RAT, Strain/Sex: F344/MALE, Route: ORAL, 1000, 3000 PPM IN DIET FOR 103 WK (STUDY DURATION: 104 WK), 1000, 3000 PPM IN DIET FOR 103 WK (STUDY DURATION: 104 WK)) was “inactive; negative”.

In the case of `CCCCC(CC)COS(=O)(=O)O` (stereo not drawn), the carcinogen call (Species: MOUSE, Strain/Sex: B6C3F1/FEMALE, Route: ORAL, 10000, 20000 PPM IN DIET FOR 102-104 WK (STUDY DURATION: 102-104 WK), 10000, 20000 PPM IN DIET FOR 102-104 WK (STUDY DURATION: 102-104 WK), Tumor Site: Type of Lesion: LIVER: CARCINOMA, CARCINOMA OR ADENOMA) is reported as “active; positive”, the carcinogen call (Species: MOUSE, Strain/Sex: B6C3F1/MALE, Route: ORAL, 5000, 10000 PPM IN DIET FOR 102-104 WK (STUDY DURATION: 102-104 WK), 5000, 10000 PPM IN DIET FOR 102-104 WK (STUDY DURATION: 102-104 WK)) is reported as “inactive; negative” and the carcinogen call (Species: RAT, Strain/Sex: F344/FEMALE, Route: ORAL, 10000, 20000 PPM IN DIET FOR 102-104 WK (STUDY DURATION: 102-104 WK), 10000, 20000 PPM IN DIET FOR 102-104 WK (STUDY DURATION: 102-104 WK)) is reported as “inactive; negative”. The carcinogen call (Species: RAT, Strain/Sex: F344/MALE, Route: ORAL, 10000, 20000 PPM IN DIET FOR 102-104 WK (STUDY DURATION: 102-104 WK), 10000, 20000 PPM IN DIET FOR 102-104 WK (STUDY DURATION: 102-104 WK)) was “inactive; negative”.

For `CC1=C(C(=O)Nc2ccccc2)SCCO1`, the carcinogen call (Species: Mouse, Strain/Sex: Charles River/Female (50 per group in experimental animals; 75 controls), Route: Oral, 50, 2,500, 5,000 ppm in diet for 19 mo, 50, 2,500, 5,000 ppm in diet for 19 mo) was “inactive; negative (purity >99%; study details not given in source)”, the carcinogen call (Species: Mouse, Strain/Sex: Charles River/Male (50 per group in experimental animals; 75 controls), Route: Oral, 50, 2,500, 5,000 ppm in diet for 19 mo, 50, 2,500, 5,000 ppm in diet for 19 mo, Tumor Site: Type of Lesion: LUNG, Pulmonary adenomas and alveolar-bronchiolar adenomas (34% in high dose group vs 17% in controls; significant), Tumor Site: Type of Lesion: LUNG, Pulmonary adenomas and alveolar-bronchiolar adenomas (34% in high dose group vs 17% in controls; significant)) was “active; positive (purity >99%; study details not given in source)” and the carcinogen call (Species: Rat, Strain/Sex: Crl:CD SD/Female (50 per group), Route: Oral, 20, 300, 600 ppm in diet for 102 wk, 20, 300, 600 ppm in diet for 102 wk) was “inactive; negative (purity 97.7%; study details not given in source)”. The carcinogen call (Species: Rat, Strain/Sex: Crl:CD SD/Male (50 per group), Route: Oral, 20, 200, 400 ppm in diet for 102 wk, 20, 200, 400 ppm in diet for 102 wk) was “inactive; negative (purity 97.7%; study details not given in source)”.

With `O=S(=O)(O)c1ccc2c(N=Nc3ccc(S(=O)(=O)O)c4ccccc34)c(O)c(S(=O)(=O)O)cc2c1` the carcinogen call (Species: MOUSE, Strain/Sex: SWISS-WEBSTER/FEMALE, Route: DERMAL, 1% IN 0.1 ML DISTILLED WATER 1/WK FOR 19.5 MO (STUDY DURATION: 19.5 MO)) was “inactive; negative”, the carcinogen call (Species: MOUSE, Strain/Sex: SWISS-WEBSTER/MALE, Route: DERMAL, 1% IN 0.1 ML DISTILLED WATER 1/WK FOR 19.5 MO (STUDY DURATION: 19.5 MO)) was “inactive; negative” and the carcinogen call (Species: RAT, Strain/Sex: WISTAR/FEMALE, Route: ORAL, 50, 250, 1250 MG/KG IN THE DIET TO PUPS OF PARENTS EXPOSED TO THE SAME DOSE LEVELS FOR 60 D PRIOR TO MATING AND CONTI, 50, 250, 1250 MG/KG IN THE DIET TO PUPS OF PARENTS EXPOSED TO THE SAME DOSE LEVELS FOR 60 D PRIOR TO MATING AND CONTI) was “inactive; negative”. The carcinogen call (Species: RAT, Strain/Sex: WISTAR/MALE, Route: ORAL, 50, 250, 1250 MG/KG IN THE DIET TO PUPS OF PARENTS EXPOSED TO THE SAME DOSE LEVELS FOR 60 D PRIOR TO MATING AND CONTI, 50, 250, 1250 MG/KG IN THE DIET TO PUPS OF PARENTS EXPOSED TO THE SAME DOSE LEVELS FOR 60 D PRIOR TO MATING AND CONTI) was “inactive; negative”.
